Values of other authors as cited in patent US5672583A, “Carboxy-peptidyl derivatives as antidegenerative active agents” (Merck & Co., Inc., priority 1995, dated 1997).

Tests used:
[1] = target: rabbit bone proteoglycanase (Oryctolagus cuniculus, UniProt P28863); conditions: Delaisse et al., Biochem. Biophys. Res. Commun. 133, 483-90 (1985)
[2] = target: T1, human rheumatoid synovial collagenase (Homo sapiens, UniProt P03956); conditions: Delaisse et al., Biochem. Biophys. Res. Commun. 133, 483-90 (1985)
T1 sequence (P03956 100-469): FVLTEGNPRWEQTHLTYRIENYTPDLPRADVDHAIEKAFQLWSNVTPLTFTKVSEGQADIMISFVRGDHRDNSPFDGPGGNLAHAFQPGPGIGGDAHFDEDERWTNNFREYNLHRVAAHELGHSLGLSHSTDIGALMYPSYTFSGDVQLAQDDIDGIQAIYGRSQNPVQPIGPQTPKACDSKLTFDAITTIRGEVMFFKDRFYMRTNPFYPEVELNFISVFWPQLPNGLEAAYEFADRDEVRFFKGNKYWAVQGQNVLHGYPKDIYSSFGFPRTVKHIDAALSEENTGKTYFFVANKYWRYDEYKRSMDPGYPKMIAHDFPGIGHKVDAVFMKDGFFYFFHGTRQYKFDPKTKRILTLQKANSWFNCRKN

Chain of rabbit bone proteoglycanase (P28863 101-478): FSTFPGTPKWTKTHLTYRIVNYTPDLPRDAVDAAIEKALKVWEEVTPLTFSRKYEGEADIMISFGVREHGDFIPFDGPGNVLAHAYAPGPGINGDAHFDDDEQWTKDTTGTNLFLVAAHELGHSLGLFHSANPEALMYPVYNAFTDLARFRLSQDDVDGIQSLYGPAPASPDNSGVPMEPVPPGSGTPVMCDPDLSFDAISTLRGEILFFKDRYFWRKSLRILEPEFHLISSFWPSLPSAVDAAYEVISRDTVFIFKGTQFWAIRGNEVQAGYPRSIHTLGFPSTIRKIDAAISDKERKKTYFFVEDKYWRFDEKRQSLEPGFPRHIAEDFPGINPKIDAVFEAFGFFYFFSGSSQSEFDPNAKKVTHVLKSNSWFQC

- IC50 [1]: 500 nM
- IC50 [2]: 800 nM
SMILES: CNC(=O)[C@H](Cc1ccc(OC)cc1)NC(=O)[C@H](CC(C)C)NC(CCNC(=O)OCc1ccccc1)C(=O)O (stereo partly drawn) [N-[3-(benzyloxycarbonyl)amino-1-carboxy-n-propyl]-L-leucyl-O-methyl-L-tyrosine, N-methylamide]
